Measurements reported in PubChem BioAssay (NCI).
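Compound exposure: 48 hours, 5 concentrations, 96-well plates. GI50 marks 50% less growth. At the TGI there is no net growth.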

Tests used:
Assay in all cases: DTP human tumour cell line panel, 48 h
[1] = system: 786-0 renal
[2] = system: HOP-62 NSCLC
[3] = system: HOP-92 NSCLC
[4] = system: HS 578T breast
[5] = system: MDA-MB-231 breast
[6] = system: OVCAR-4 ovarian
[7] = system: SNB-19 CNS
[8] = system: SNB-75 CNS
[9] = system: SR leukemia
[10] = system: TK-10 renal
[11] = system: U251 CNS
[12] = system: A498 renal
[13] = system: A549 NSCLC
[14] = system: ACHN renal
[15] = system: CAKI-1 renal
[16] = system: CCRF-CEM leukemia
[17] = system: COLO 205 colon
[18] = system: DU-145 prostate
[19] = system: EKVX NSCLC
[20] = system: HCC-2998 colon
[21] = system: HCT-116 colon
[22] = system: HCT-15 colon
[23] = system: HL-60(TB) leukemia
[24] = system: HT29 colon
[25] = system: IGROV1 ovarian
[26] = system: K-562 leukemia
[27] = system: KM12 colon
[28] = system: LOX IMVI melanoma
[29] = system: M14 melanoma
[30] = system: MALME-3M melanoma
[31] = system: MCF7 breast
[32] = system: MDA-MB-435
[33] = system: MOLT-4 leukemia
[34] = system: NCI-H226 lung
[35] = system: NCI-H23 lung
[36] = system: NCI-H460 lung
[37] = system: NCI-H522 lung
[38] = system: NCI/ADR-RES ovarian
[39] = system: OVCAR-3 ovarian
[40] = system: OVCAR-5 ovarian
[41] = system: OVCAR-8 ovarian
[42] = system: PC-3 prostate
[43] = system: RPMI-8226 leukemia
[44] = system: RXF 393 renal
[45] = system: SF-268 CNS
[46] = system: SF-295 CNS
[47] = system: SF-539 CNS
[48] = system: SK-MEL-28 melanoma
[49] = system: SK-MEL-5 melanoma
[50] = system: SK-OV-3 ovarian
[51] = system: SN12C renal
[52] = system: SW-620 colon
[53] = system: T-47D breast
[54] = system: UACC-257 melanoma
[55] = system: UACC-62 melanoma
[56] = system: UO-31 renal
[57] = system: SK-MEL-2 melanoma

## COc1cc(/C=C/C(=O)c2ccc(NC(=O)CSc3nnc(-c4cc(OC)c(OC)c(OC)c4)n3-c3ccccc3)cc2)cc(OC)c1OC
[1]
  GI50: 1.05 µM
  TGI: 4.63 µM
[2]
  GI50: 1.84 µM
  TGI: 7.06 µM
[3]
  GI50: 2.06 µM
  TGI: 9.67 µM
[4]
  GI50: 20.4 µM
  TGI: > 100 µM
[5]
  GI50: 4.09 µM
  TGI: > 100 µM
[6]
  GI50: 1.8 µM
  TGI: > 100 µM
[7]
  GI50: 2.18 µM
  TGI: > 100 µM
[8]
  GI50: 0.429 µM
  TGI: 14.2 µM
[9]
  GI50: 0.316 µM
  TGI: > 100 µM
[10]
  GI50: 9.3 µM
  TGI: > 100 µM
[11]
  GI50: 0.527 µM
  TGI: > 100 µM

## c1ccc(CN=C(NCc2ccccc2)NCc2ccccc2)cc1
[1]
  GI50: 11.4 µM
  TGI: 25.7 µM
[12]
  GI50: 2.2 µM
  TGI: 14.7 µM
[13]
  GI50: 11.2 µM
  TGI: 25.3 µM
[14]
  GI50: 6.03 µM
  TGI: 21.1 µM
[15]
  GI50: 11.1 µM
  TGI: 26.7 µM
[16]
  GI50: 10.2 µM
  TGI: 62.5 µM
[17]
  GI50: 1.98 µM
  TGI: 4.03 µM
[18]
  GI50: 5.38 µM
  TGI: 19.4 µM
[19]
  GI50: 1.85 µM
  TGI: 7.81 µM
[20]
  GI50: 3.65 µM
  TGI: 12.9 µM
[21]
  GI50: 3.97 µM
  TGI: 17.3 µM
[22]
  GI50: 14.3 µM
  TGI: > 100 µM
[23]
  GI50: 2.69 µM
  TGI: 13.2 µM
[2]
  GI50: 12.7 µM
  TGI: 25.9 µM
[3]
  GI50: 3.18 µM
  TGI: 12.7 µM
[4]
  GI50: 10.3 µM
  TGI: 27.3 µM
[24]
  GI50: 5.58 µM
  TGI: 19.8 µM
[25]
  GI50: 1.66 µM
  TGI: 9.51 µM
[26]
  GI50: 2.6 µM
  TGI: 11.9 µM
[27]
  GI50: 3.36 µM
  TGI: 13.1 µM
[28]
  GI50: 5.52 µM
  TGI: 19.3 µM
[29]
  GI50: 4.18 µM
  TGI: 17.3 µM
[30]
  GI50: 3.56 µM
  TGI: 17.1 µM
[31]
  GI50: 6.37 µM
  TGI: 19.6 µM
[5]
  GI50: 10.6 µM
  TGI: 25.4 µM
[32]
  GI50: 3.21 µM
  TGI: 15.1 µM
[33]
  GI50: 3.77 µM
  TGI: 19.1 µM
[34]
  GI50: 6.04 µM
  TGI: 21.4 µM
[35]
  GI50: 4.66 µM
  TGI: 17.8 µM
[36]
  GI50: 5.1 µM
  TGI: 19.5 µM
[37]
  GI50: 8.35 µM
  TGI: 21.3 µM
[38]
  GI50: 30.6 µM
  TGI: > 100 µM
[39]
  GI50: 3.11 µM
  TGI: 14.9 µM
[6]
  GI50: 6.23 µM
  TGI: 36.8 µM
[40]
  GI50: 10.1 µM
  TGI: 24.5 µM
[41]
  GI50: 6.44 µM
  TGI: 21.8 µM
[42]
  GI50: 2.76 µM
  TGI: 12.9 µM
[43]
  GI50: 4.7 µM
  TGI: 24.4 µM
[44]
  GI50: 14.3 µM
  TGI: 28.2 µM
[45]
  GI50: 4.32 µM
  TGI: 18.5 µM
[46]
  GI50: 1.21 µM
  TGI: 6.49 µM
[47]
  GI50: 11.9 µM
  TGI: 27.5 µM
[48]
  GI50: 14.8 µM
  TGI: 29.2 µM
[49]
  GI50: 3.95 µM
  TGI: 14.6 µM
[50]
  GI50: 10.9 µM
  TGI: 23.6 µM
[51]
  GI50: 6.92 µM
  TGI: 24.1 µM
[7]
  GI50: 11 µM
  TGI: 25 µM
[8]
  GI50: 2.37 µM
  TGI: 13 µM
[9]
  GI50: 6.21 µM
  TGI: 29.5 µM
[52]
  GI50: 4.42 µM
  TGI: 17.9 µM
[53]
  GI50: 4.7 µM
  TGI: 17 µM
[10]
  GI50: 10.7 µM
  TGI: 27.3 µM
[11]
  GI50: 10.2 µM
  TGI: 23.5 µM
[54]
  GI50: 3.23 µM
  TGI: 11.1 µM
[55]
  GI50: 10.1 µM
  TGI: 22.6 µM
[56]
  GI50: 3.07 µM
  TGI: 15.2 µM

## O=C1c2ccccc2-c2c1c1c(O)cccc1n2-c1ccccc1
[1]
  GI50: 62.2 µM
  TGI: > 100 µM
[13]
  GI50: > 100 µM
  TGI: > 100 µM
[14]
  GI50: > 100 µM
  TGI: > 100 µM
[15]
  GI50: > 100 µM
  TGI: > 100 µM
[16]
  GI50: 45.3 µM
  TGI: > 100 µM
[17]
  GI50: > 100 µM
  TGI: > 100 µM
[18]
  GI50: > 100 µM
  TGI: > 100 µM
[19]
  GI50: > 100 µM
  TGI: > 100 µM
[20]
  GI50: > 100 µM
  TGI: > 100 µM
[21]
  GI50: > 100 µM
  TGI: > 100 µM
[22]
  GI50: > 100 µM
  TGI: > 100 µM
[2]
  GI50: 66.3 µM
  TGI: > 100 µM
[3]
  TGI: 0.035 µM
[4]
  GI50: > 100 µM
  TGI: > 100 µM
[24]
  GI50: > 100 µM
  TGI: > 100 µM
[25]
  GI50: > 100 µM
  TGI: > 100 µM
[26]
  GI50: > 100 µM
  TGI: > 100 µM
[27]
  GI50: > 100 µM
  TGI: > 100 µM
[28]
  GI50: > 100 µM
  TGI: > 100 µM
[29]
  GI50: 29.3 µM
  TGI: > 100 µM
[30]
  GI50: > 100 µM
  TGI: > 100 µM
[31]
  GI50: > 100 µM
  TGI: > 100 µM
[5]
  GI50: > 100 µM
  TGI: > 100 µM
[32]
  GI50: > 100 µM
  TGI: > 100 µM
[33]
  GI50: > 100 µM
  TGI: > 100 µM
[34]
  GI50: > 100 µM
  TGI: > 100 µM
[35]
  GI50: > 100 µM
  TGI: > 100 µM
[36]
  GI50: > 100 µM
  TGI: > 100 µM
[37]
  GI50: > 100 µM
  TGI: > 100 µM
[38]
  GI50: > 100 µM
  TGI: > 100 µM
[39]
  GI50: > 100 µM
  TGI: > 100 µM
[6]
  TGI: > 100 µM
[40]
  GI50: > 100 µM
  TGI: > 100 µM
[41]
  GI50: > 100 µM
  TGI: > 100 µM
[42]
  GI50: > 100 µM
  TGI: > 100 µM
[43]
  GI50: 0.0318 µM
  TGI: 93.8 µM
[45]
  GI50: > 100 µM
  TGI: > 100 µM
[46]
  GI50: > 100 µM
  TGI: > 100 µM
[57]
  GI50: > 100 µM
  TGI: > 100 µM
[48]
  GI50: 18.5 µM
  TGI: > 100 µM
[49]
  GI50: > 100 µM
  TGI: > 100 µM
[50]
  GI50: > 100 µM
  TGI: > 100 µM
[51]
  GI50: > 100 µM
  TGI: > 100 µM
[7]
  GI50: > 100 µM
  TGI: > 100 µM
[9]
  GI50: > 100 µM
  TGI: > 100 µM
[52]
  GI50: > 100 µM
  TGI: > 100 µM
[53]
  GI50: > 100 µM
  TGI: > 100 µM
[10]
  GI50: > 100 µM
  TGI: > 100 µM
[11]
  GI50: > 100 µM
  TGI: > 100 µM
[54]
  GI50: > 100 µM
  TGI: > 100 µM
[55]
  GI50: > 100 µM
  TGI: > 100 µM
[56]
  GI50: > 100 µM
  TGI: > 100 µM
